From ChEMBL document CHEMBL1201862, “PubChem BioAssay data set” (2004)
Values joined by “and” are separate entries in the source; they are usually repeats but may differ in a detail not shown here. Equal values may be shown once. Active and inactive are the calls of the source.

Experiments:
Cytochrome P450 1A2 = target: T1, Cytochrome P450 1A2 (Homo sapiens, UniProt P05177);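 also: PubChem cytochrome P450 panel assay, CYP1A2 panel member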
T1 sequence (P05177 whole entry): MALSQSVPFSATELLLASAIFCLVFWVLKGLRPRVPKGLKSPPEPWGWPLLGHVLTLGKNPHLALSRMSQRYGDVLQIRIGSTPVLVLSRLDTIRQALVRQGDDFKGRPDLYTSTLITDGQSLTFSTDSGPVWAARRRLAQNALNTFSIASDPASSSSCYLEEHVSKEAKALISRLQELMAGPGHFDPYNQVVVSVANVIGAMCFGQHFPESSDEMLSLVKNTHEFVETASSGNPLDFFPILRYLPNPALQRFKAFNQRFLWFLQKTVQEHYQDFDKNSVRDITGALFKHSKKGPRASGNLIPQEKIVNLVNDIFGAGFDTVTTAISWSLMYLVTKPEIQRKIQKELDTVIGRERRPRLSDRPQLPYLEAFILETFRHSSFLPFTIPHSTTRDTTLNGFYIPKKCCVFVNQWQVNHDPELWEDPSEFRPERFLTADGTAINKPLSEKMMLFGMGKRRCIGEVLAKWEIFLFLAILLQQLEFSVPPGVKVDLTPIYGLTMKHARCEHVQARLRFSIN

Cytochrome P450 2C9 = Cytochrome P450 2C9 (Homo sapiens, UniProt P11712)
Chain of Cytochrome P450 2C9 (P11712 whole entry): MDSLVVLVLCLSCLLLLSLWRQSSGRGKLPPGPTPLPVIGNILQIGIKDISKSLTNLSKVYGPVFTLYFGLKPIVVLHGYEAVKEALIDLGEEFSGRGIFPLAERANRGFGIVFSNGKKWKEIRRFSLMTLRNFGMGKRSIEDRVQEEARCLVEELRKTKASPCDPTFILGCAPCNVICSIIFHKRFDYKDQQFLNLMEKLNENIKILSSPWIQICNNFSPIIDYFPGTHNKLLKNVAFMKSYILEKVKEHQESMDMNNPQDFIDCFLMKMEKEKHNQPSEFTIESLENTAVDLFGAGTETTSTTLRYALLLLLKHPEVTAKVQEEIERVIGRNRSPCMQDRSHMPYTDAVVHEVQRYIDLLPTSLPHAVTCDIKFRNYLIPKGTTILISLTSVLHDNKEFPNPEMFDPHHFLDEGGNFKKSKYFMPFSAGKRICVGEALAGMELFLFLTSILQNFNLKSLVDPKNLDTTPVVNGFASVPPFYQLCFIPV

Cytochrome P450 3A4 = Cytochrome P450 3A4 (Homo sapiens, UniProt P08684);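 also: CYP3A4 tested as one member of a cytochrome P450 panel screen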
Chain of Cytochrome P450 3A4 (P08684 whole entry): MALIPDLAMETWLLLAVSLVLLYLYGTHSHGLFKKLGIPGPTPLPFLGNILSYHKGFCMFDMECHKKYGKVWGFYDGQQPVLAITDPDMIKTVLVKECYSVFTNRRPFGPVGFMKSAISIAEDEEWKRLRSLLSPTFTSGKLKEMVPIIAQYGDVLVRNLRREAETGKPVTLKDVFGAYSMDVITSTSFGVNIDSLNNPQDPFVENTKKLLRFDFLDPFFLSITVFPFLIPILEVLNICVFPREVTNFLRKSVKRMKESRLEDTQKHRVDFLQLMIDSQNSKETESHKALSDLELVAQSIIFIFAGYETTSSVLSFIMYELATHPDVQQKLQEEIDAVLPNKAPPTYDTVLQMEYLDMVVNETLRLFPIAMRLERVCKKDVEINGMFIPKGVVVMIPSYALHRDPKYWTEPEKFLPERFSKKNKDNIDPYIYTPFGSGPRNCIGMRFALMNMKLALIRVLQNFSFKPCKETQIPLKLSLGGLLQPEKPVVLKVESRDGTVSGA

[1] = target: T2, Corticotropin-releasing factor receptor 2/Corticotropin-releasing factor-binding protein (Homo sapiens, UniProt P24387+Q13324); experiment: activators of CRF receptor 2 with binding protein – uHTS hits, confirmation (AID 602473); format: functional; details: read-out: EC50_Mean
T2 sequence (Q13324 whole entry): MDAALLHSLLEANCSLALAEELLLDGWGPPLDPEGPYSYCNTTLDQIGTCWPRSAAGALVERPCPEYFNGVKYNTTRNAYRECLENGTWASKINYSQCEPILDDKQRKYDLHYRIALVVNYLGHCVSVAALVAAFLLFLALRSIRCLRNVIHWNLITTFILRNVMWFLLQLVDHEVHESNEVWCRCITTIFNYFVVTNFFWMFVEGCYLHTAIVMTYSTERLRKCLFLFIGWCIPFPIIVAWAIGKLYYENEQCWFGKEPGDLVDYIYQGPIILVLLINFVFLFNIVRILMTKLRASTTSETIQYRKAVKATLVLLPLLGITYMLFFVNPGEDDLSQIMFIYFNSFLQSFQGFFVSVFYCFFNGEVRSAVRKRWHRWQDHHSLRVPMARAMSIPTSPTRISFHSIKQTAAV
T2 sequence (P24387 whole entry): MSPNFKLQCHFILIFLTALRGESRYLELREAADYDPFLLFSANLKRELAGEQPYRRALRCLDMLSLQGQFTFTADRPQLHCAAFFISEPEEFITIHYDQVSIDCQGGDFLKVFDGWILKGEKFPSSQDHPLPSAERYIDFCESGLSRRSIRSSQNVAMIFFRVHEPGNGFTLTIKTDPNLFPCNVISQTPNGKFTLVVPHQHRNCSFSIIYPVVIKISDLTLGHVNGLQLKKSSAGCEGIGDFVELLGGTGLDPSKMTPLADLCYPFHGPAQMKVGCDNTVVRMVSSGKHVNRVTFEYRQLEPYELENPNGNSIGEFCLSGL

[2] = Trypanosoma cruzi growth suppression in host cells – NIH3T3 host cells, beta-gal luminescence, confirmation (AID 2044); format: functional, cell-based;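 also: intracellular parasites grown in NIH/3T3 mouse fibroblasts as host cells; luminescent beta-galactosidase reporter signal from transgenic T. cruzi replicating inside host cells; inhibitors lower the luminescence signal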
[3] = NIH3T3 cell viability loss – ATP luminescence, mouse fibroblasts, counter-screen, dose response (AID 2010); format: functional, cell-based;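 also: cells exposed to compound for about 90 hours before reading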
[4] = system: Streptococcus sp. 'group A'; experiment: Streptococcus pyogenes SK(-)GAS viability under kanamycin – luminescence, BacTiterGlo, confirmation, counter-screen for streptokinase expression inhibitor project, dose response (AID 1900); format: functional, organism-based
Streptococcus = experiment: GAS UMAA2166 growth inhibition – luminescence, BacTiterGlo, counter-screen for streptokinase expression inhibitor project, dose response (AID 1915); format: functional, organism-based;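 also: potency for reduction of bacterial viability or growth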

O[C@H](CCCN1CCN(c2ncc(F)cn2)CC1)c1ccc(F)cc1
AC50 (Cytochrome P450 1A2): 31.6 µM (inconclusive) | AC50 (Cytochrome P450 2C9): 12.6 µM (inconclusive)

COc1ccccc1CN1CC[C@@]2(CCCN(C(=O)c3ccco3)C2)C1
AC50 (Cytochrome P450 1A2): 39.8 µM (inconclusive)

COc1cccc(-c2cncnc2NCCN2CCOCC2)c1
AC50 (Cytochrome P450 1A2): 15.8 µM (inconclusive) | AC50 (Cytochrome P450 3A4): 3.16 µM (inconclusive)

Cc1noc(C)c1-c1ccc2ncnc(NC3CCNCC3)c2c1
AC50 (Cytochrome P450 1A2): 31.6 µM (inconclusive)

O=C1S/C(=C/c2ccc(N3CCOCC3)o2)C(=O)N1Cc1ccc(F)cc1
EC50 [1]: 5.79 µM (active) | AC50 (Cytochrome P450 3A4): 7.94 µM (inconclusive)

CC(C)N1CCc2c(sc(NC(=O)CCc3ccccc3)c2C(N)=O)C1
EC50 [1]: > 53 µM (inactive)

CCN(CC)c1ccc(N2C(=O)/C(=C\c3cccnc3)SC2=S)cc1
AC50 (Cytochrome P450 1A2): 1.41 µM (inconclusive)

Cc1ccccc1-c1nc(NC2CCNCC2)c2ccccc2n1
AC50 (Cytochrome P450 1A2): 20 µM (inconclusive)

CC(C)N(CCNC(=O)c1nn(Cc2ccccc2)c(=O)c2ccccc12)C(C)C
EC50 [2]: 1.46 µM (active) | EC50 [3]: > 60 µM (not active)

Cc1ccc(S(=O)(=O)O[C@H]2C[C@@H](C(C)(C)C)CC[C@@H]2c2ccccc2)cc1
AC50 (Cytochrome P450 3A4): 2 µM (inconclusive)

S=C(Nc1ccc2c(c1)Cc1ccccc1-2)Nc1ccc2c(c1)Cc1ccccc1-2
AC50 (Cytochrome P450 3A4): 3.98 µM (inconclusive)

CCC1CCCCN1S(=O)(=O)c1ccc(C(=O)Nc2nnc(C3=COCCO3)o2)cc1 (stereo unspecified)
EC50 [4]: 4.61 µM (active) | EC50 (Streptococcus): 10.7 µM (active)

CC1CC(C)CN(CCCNC(=O)C2CCCN(c3nnc(N4CCCC4=O)s3)C2)C1 (stereo unspecified)
AC50 (Cytochrome P450 3A4): 28.2 µM (inconclusive)

O=c1c(-c2ccccc2)nc2cnc(Oc3ccccc3)nc2n1Cc1cccs1
AC50 (Cytochrome P450 1A2): 2.51 µM (inconclusive) | AC50 (Cytochrome P450 2C9): 3.16 µM (inconclusive)

CCOc1cc(-c2nc(-c3cc([N+](=O)[O-])ccc3C)c(-c3ccccc3)[nH]2)ccc1O
EC50 [2]: 2.7 µM (active) | EC50 [3]: > 60 µM (inconclusive)

CC(C(=O)Nc1ccccc1C(=O)O)n1c(C(F)(F)F)nc2ccccc21 (stereo unspecified)
EC50 [2]: 9.95 µM (active) | EC50 [3]: > 60 µM (inconclusive)

CS(=O)(=O)N1CC(C(=O)NC2CC2)Oc2ccc(Cl)cc21 (stereo unspecified)
AC50 (Cytochrome P450 3A4): 25.1 µM (inconclusive) | AC50 (Cytochrome P450 2C9): 10 µM (inconclusive)

C=CCn1c(NCc2ccccc2)nc2ccccc21
AC50 (Cytochrome P450 3A4): 25.1 µM (inconclusive)

O=C(c1cc(-c2ccccc2)nc2ccccc12)N1CCC2(CC1)OCCO2
AC50 (Cytochrome P450 3A4): 25.1 µM (inconclusive)

CC(C)(C)C(=O)Nc1sc2c(c1C#N)CCN(Cc1ccccc1)C2
EC50 [1]: 10.2 µM (active)

Cc1ccc(/N=N\c2ccc(N)cc2C)c(S(N)(=O)=O)c1
AC50 (Cytochrome P450 3A4): 3.98 µM (inconclusive)

N#Cc1ccc(CN2CCCC3(CCN(C(=O)Oc4ccccc4)CC3)C2)cc1
AC50 (Cytochrome P450 3A4): 15.8 µM (inconclusive) | AC50 (Cytochrome P450 2C9): 39.8 µM (inconclusive)

CCOC(=O)N1CCN(C(=O)CC(C(=O)N2CCc3ccccc32)n2ccnc2)CC1 (stereo unspecified)
EC50 [2]: 1.82 µM (active) | EC50 [3]: > 60 µM (not active)

Cc1cnc(CNc2ncncc2-c2cccc(NS(C)(=O)=O)c2)cn1
AC50 (Cytochrome P450 1A2): 31.6 µM (inconclusive)

O=C(O)CCC(=O)N1CCN(c2ccccn2)CC1
AC50 (Cytochrome P450 3A4): 3.55 µM (inconclusive) | AC50 (Cytochrome P450 2C9): 0.891 µM (inconclusive)

Cc1cccc(OCCCCCn2ccnc2)c1
EC50 [2]: 0.443 µM (active) | EC50 [3]: > 30 µM (not active)

COc1ccc2c3c([nH]c2c1)C(C)=NCC3
AC50 (Cytochrome P450 3A4): 2.51 µM (inconclusive)

CCCCN1C(=O)NC(=O)/C(=C(/C)NCCCN(CC)CC)C1=O
EC50 [2]: 1.66 µM (active) | EC50 [3]: > 60 µM (not active)

COc1ccc(Br)cc1S(=O)(=O)Nc1nc[nH]n1
EC50 [4]: > 150 µM (not active) | EC50 (Streptococcus): > 150 µM (not active)

N#Cc1c(Nc2cccc(F)c2)sc2c(O)cc(O)nc12
EC50 [4]: 1.19 µM (active) | EC50 (Streptococcus): 5.71 µM (active)

O=C(Nc1ccccc1)Nc1ccccc1-n1ccnc1
EC50 [2]: 2.53 µM (active) | EC50 [3]: > 60 µM (not active)

COc1ccc(C(=O)c2ccc(N3CCN(C(=O)c4ccc(F)cc4)CC3)c(F)c2)cc1Br
EC50 [2]: 2.37 µM (active) | EC50 [3]: 8.95 µM (active)

C=CCSc1nnc(NC(=O)COc2ccc3ccccc3c2)s1
AC50 (Cytochrome P450 2C9): 8.91 µM (inconclusive)

N#Cc1cc(C(=O)c2ccccc2O)cn(-c2ccc(Cl)cc2)c1=O
EC50 [1]: > 53 µM (inactive)

Cc1ccc2nc(NC(=O)C3CCN(S(=O)(=O)c4cc([N+](=O)[O-])ccc4Cl)CC3)sc2c1
EC50 [2]: 0.528 µM (active) | EC50 [3]: > 60 µM (not active)

COc1ccc(-c2[nH]nc(C)c2-c2ccc(Cl)cc2)c(O)c1
EC50 [4]: 9.86 µM (active) | EC50 (Streptococcus): 11.1 µM (active)

CCN(CC)P(=O)(Nc1ccc(SC(F)F)cc1)c1ccc(N(C)C)cc1NC(=O)c1ccco1 (stereo unspecified)
EC50 [2]: 1.99 µM (active) | EC50 [3]: > 60 µM (not active)

COc1ccccc1-c1cncnc1N1CCN(C)CC1
AC50 (Cytochrome P450 1A2): 12.6 µM (inconclusive)

O=C(c1ccc2c(=O)n(CC3CCCO3)c(=S)[nH]c2c1)N1CCN(c2ccccc2)CC1 (stereo unspecified)
AC50 (Cytochrome P450 3A4): 7.08 µM (inconclusive) | AC50 (Cytochrome P450 2C9): 7.94 µM (inconclusive)

CC(C)(C)NS(=O)(=O)c1ccc(NS(=O)(=O)c2ccc(F)cc2)cc1
AC50 (Cytochrome P450 3A4): 15.8 µM (inconclusive)

COc1ccc(OC)c(Nc2nc(-c3sc(NC(=O)c4ccccc4)nc3C)cs2)c1
AC50 (Cytochrome P450 3A4): 28.2 µM (inconclusive)

CCN1CCc2c(sc(NC(=S)NC(=O)c3ccccc3)c2C#N)C1
AC50 (Cytochrome P450 1A2): 14.1 µM (inconclusive) | AC50 (Cytochrome P450 3A4): 20 µM (inconclusive)

CC(C)CN1CCC2(CC1)CCN(C(=O)c1cc(C(F)(F)F)cc(C(F)(F)F)c1)CC2
AC50 (Cytochrome P450 2C9): 12.6 µM (inconclusive)

Cc1noc(N)c1C(=O)Nc1ccc(F)cc1
AC50 (Cytochrome P450 2C9): 3.98 µM (inconclusive)

CCc1ccc(OCCOCC(O)CNC(C)(C)C)cc1 (stereo unspecified)
EC50 [1]: > 53 µM (inactive)

Cc1onc(C(=O)/C=C/N(C)C)c1C(=O)Nc1nccs1
AC50 (Cytochrome P450 1A2): 0.631 µM (inconclusive)

CC1(C)CSC(NCc2ccccc2)=N1
EC50 [1]: 2.84 µM (active)

Cn1ncc(C#N)c1NC(=O)C1CC(c2ccc(Cl)cc2)=NO1 (stereo unspecified)
AC50 (Cytochrome P450 1A2): 31.6 µM (inconclusive) | AC50 (Cytochrome P450 3A4): 20 µM (inconclusive) | AC50 (Cytochrome P450 2C9): 12.6 µM (inconclusive)

Cn1cnc([N+](=O)[O-])c1Sc1nc(N)nc2c1ncn2Cc1ccccc1
AC50 (Cytochrome P450 1A2): 3.16 µM (inconclusive)

COc1ccc(C(=O)NC2CCN(C(S)=Nc3cccc(C)c3)CC2)cc1
AC50 (Cytochrome P450 2C9): 25.1 µM (inconclusive)

O=C(NCCCN1CCc2ccccc2C1)C1CCN(S(=O)(=O)N2CCCC2)CC1
AC50 (Cytochrome P450 3A4): 20 µM (inconclusive)

CCOC(=O)CC(NC(=O)c1ccc(C)cc1)c1ccc(C)cc1 (stereo unspecified)
AC50 (Cytochrome P450 3A4): 25.1 µM (inconclusive)

O=C(Nc1cccnc1Cl)C1c2ccccc2Oc2ccccc21
AC50 (Cytochrome P450 1A2): 3.16 µM (inconclusive) | AC50 (Cytochrome P450 3A4): 14.1 µM (inconclusive)

CC(C)C[C@H]1CN=C(Nc2ccccc2)N1CCc1cccc(F)c1
EC50 [1]: 6.43 µM (active)

N[C@H](Cc1ccc(N(CCCl)CCCl)cc1)C(=O)O
AC50 (Cytochrome P450 1A2): 15.8 µM (inconclusive)

Cc1ccc(/C=N\NC(=O)c2ccc(Cn3cc(Br)c([N+](=O)[O-])n3)o2)o1
EC50 [2]: 0.878 µM (active) | EC50 [3]: > 60 µM (not active)

C/C(=N/NC(=O)c1ccc(C)s1)c1cccc(NC(=O)COc2ccc(Cl)cc2C)c1
AC50 (Cytochrome P450 3A4): 1.12 µM (inconclusive)

NNS(=O)(=O)c1cc(C(=O)O)cc(C(=O)O)c1
AC50 (Cytochrome P450 1A2): 0.001 µM (inconclusive)

N[C@H](CCCP(=O)(O)O)C(=O)O
AC50 (Cytochrome P450 1A2): 25.1 µM (inconclusive) and 31.6 µM (inconclusive)
